Experimental data reported in patent US20110092462A1, “USE OF HIGH-DOSE OXAZAPHOSPHORINE DRUGS FOR TREATING IMMUNE DISORDERS” (The Johns Hopkins University, priority 2005, published 2011).
Like-named read-outs stand apart in the source and are kept apart here.

Tests used:
[1] = system: SAA patients; details: 10 SAA patients
[2] = system: patients with severe refractory autoimmune disorders
[3] = system: SAA patients; details: for mortality within 6 months after treatment / patients achieving remission: 38 newly diagnosed patients
Excerpt: Response was defined as ANC >1000/d1 and transfusion independence without growth factor support for >3 months. Relapse was defined as no longer meeting criteria for response. Development of paroxysmal nocturnal hemoglobinuria was monitored by flow cytometry.
The median age of the newly diagnosed patients was 40 (range 2-68) years.

[4] = system: patients with myasthenia gravis; details: 7 patients refractory to conventional immunosuppressive therapy
[5] = system: patients with refractory autoimmune hemolytic anemia
Excerpt: The median hemoglobin at the time of treatment was 6.7 (range; 5-10) g/dl and 8 of the 9 patients were dependent on erythrocyte transfusions.

[6] = system: patients with moderate to severe systemic lupus erythematosus (SLE)
[7] = system: patient with pemphigus vulgaris
[8] = system: patient with paraneoplastic pemphigus
[9] = system: patients with aggressive MS; details: eight patients
Description: Open-label trial of patients with aggressive MS were given an up-front regimen of 50 mg/kg/d for four consecutive days. Enrolled patients had aggressive MS as defined by 2 or more total gadolinium enhancing lesions on each of two pretreatment MRI scans; at least one clinical exacerbation in the last year despite being on conventional MS therapy; and sustained increase of >1.0 on the EDSS in the preceding year.
All patients developed transient severe neutropenia, an expected consequence, followed by immune reconstitution in 10-17 days.

[10] = system: patients with HAA
Description: Serology/PCR for HAV, HBV, HCV, EBV, and CMV were negative. All patients met criteria for very severe aplastic anemia pretreatment: bone marrow cellularity <25%, ANC <200 μL, platelet count <20,000/μL, absolute reticulocyte count <60,000/μL. Infection prophylaxis consisted of trimethoprim/sulfamethoxazole, G-CSF, and fluconazole.

[11] = system: previously untreated SAA patients
[12] = system: HLA-specific antibodies in SAA patients
[13] = after the last dose of cyclophosphamide
[14] = 50 mg/kg/d for four consecutive days

In the case of `O=P1(N(CCCl)CCCl)NCCCO1` (centres unmarked) [high-dose cyclophosphamide, cyclophosphamide], the “complete remission (normocellular bone marrow, hemoglobin >13.0 g/dl, neutrophil count >[…]10^9/L, platelet count greater than 125×10^9/L)” value [1] is reported as “seven of ten”, the “median time to a neutrophil count of 500 per μL” value [2, 13] is reported as 17 days and the “median time to platelet transfusion independence” value [2, 13] is reported as 16 days. For the same compound, the complete remission ([2]; eight patients) was “five”, the marked clinical improvement ([2]; eight patients) was “Seven patients” and the partial remission ([2]; eight patients) was 2. The PNH clone ([3]; 12 patients with a PNH population) was “regressing in all 12 patients”, the durable remission ([3]; 12 patients with a PNH population 0.5-40% of granulocytes, p=0.039) was “all 12” and the patients in remission ([3]; 17 patients who failed immunosuppressive therapy) was “nine”. The “additional patient died from bacterial sepsis” value ([3]; 18 months after treatment) was 1 patient, the “mortality within 6 months after treatment” value [3] was 10.5% and the patients achieving remission ([3]; 95% CI 58-85%) was 74%. The “mortality within 6 months after treatment” value ([3]; all with vSAA) was 4 patients, the patients achieving remission ([3]; most complete) was 28 patients and the patients in remission ([3]; SAA (not very severe) subgroup of 23) was 20 patients. For the same compound, the “patients surviving in remission” value ([3]; eight patients with a severe infection at beginning of treatment) was 5 patients, the “median time to ANC of 500” value ([3]; newly diagnosed patients) was 50 days and the “median time to last platelet transfusion” value ([3]; newly diagnosed patients) was 99 days. The “median time to last red cell transfusion” value ([3]; newly diagnosed patients) was 181 days, the patients relapsed ([3]; newly diagnosed series) was “Two patients” and the “progression to PNH or MDS” value ([3]; newly diagnosed series) was “No patient”. The actuarial survival ([3]; newly diagnosed, 95% CI 72-95%) was 86%, the patients surviving ([3]; newly diagnosed, median follow-up 41 (range 6-111) months) was 33/38 and the patients alive ([3]; patients who failed immunosuppressive therapy) was “Ten of the 17”. For the same compound, the patients in remission ([3]; vSAA subgroup of 15) was 10 patients, the “markedly improved, and returned to full activity” value [4] was “All of these patients” and the “complete remission (normal untransfused hemoglobin for age and sex)” value ([5]; 9 patients) was 6 patients. For the same compound, the “median time to a neutrophil count of 500 per μL” value ([5]; 9 patients) was 16 days, the “median time to platelet transfusion independence” value ([5]; 9 patients) was 15 days and the “partial remission (hemoglobin >10.0 g/dl without support of transfusions)” value ([5]; 9 patients) was 3 patients. For the same compound, the “responded and became transfusion independent” value ([5]; 9 patients) was “All patients”, the “patients able to discontinue steroids” value ([5]; in vivo) was 7 of the 9 and the relapses ([5]; median follow-up of 15 (range 4-29) months) was “no relapses”. For the same compound, the “deaths or fungal infections” value ([6]; 14 patients) was “no deaths or fungal infections”, the durable complete responses ([6]; 14 patients) was 5 and the “median time to a neutrophil count of 500 μl” value ([6]; after the last dose, range 11 to 22 days, 14 patients) was 14 days. The “improvement in Physicians Global Assessment, mean difference” value ([6]; p<0.0001) was 1.3, the “improvement in prednisone dosage, mean difference” value ([6]; p=0.01) was 12.8 mg and the “improvement in systemic lupus erythematosus disease activity index, mean difference” value ([6]; p=0.042) was 3.5. For the same compound, the “median day to last platelet transfusion” value ([6]; range 0 to 23) was 16 days, the “median transfusions of packed red blood cells required” value ([6]; range 2 to 5) was 2 transfusions and the “pathogenic autoantibodies specific for the disease” value ([7]; after treatment) was “undetectable”. For the same compound, the remission ([7]; in vivo) was “durable complete remissions”, the “began to recover neutrophils” value ([7]; one patient) was at most 9 days and the “need for red cell transfusions” value ([7]; one patient) was “did not require red cell transfusions”. For the same compound, the platelet transfusions received ([7]; one patient) was 2, the “pathogenic autoantibodies specific for the disease” value ([8]; after treatment) was “undetectable” and the remission ([8]; in vivo) was “durable complete remissions”. For the same compound, the “need for blood products” value ([8]; one patient) was “did not require blood products”, the “recovery to a neutrophil count of greater than 500 per μL” value ([8]; one patient) was at most 15 days and the brain atrophy [9] was “slowed in several patients”. The “clinical exacerbation following treatment” value [9] was “No patient”, the “improvement in the MSFC following treatment” value [9] was “most patients” and the “reduction in EDSS following treatment” value [9] was “most patients”. For the same compound, the “reduction or elimination of new and enhancing lesions on the MRI” value [9] was “All patients”, the “time to immune reconstitution after neutropenia” value [9, 14] was 10 to 17 days and the transient severe neutropenia [9, 14] was “All patients”. The “unexpected grade 3 or 4 adverse event” value [9, 14] was “no patients”, the “duration of remission after treatment without further immune suppression” value ([10]; 4 patients with hematopoietic responses) was “up to 6 years” and the “autoimmune hepatitis (AIH) status” value ([10]; Patient 2) was “remains in remission”. For the same compound, the hematologic response ([10]; Patient 5, proceeded to unrelated BMT after 5 months) was “no hematopoietic response”, the hematopoietic recovery ([10]; five patients, 50 mg/kg/day IV×4 days plus mesna) was “Four patients” and the “durable remissions in hepatitis-associated aplastic anemia” value ([10]; follow-up 1-6 years) was 4 of 5. For the same compound, the “median time to ANC >500/μL” value ([10]; range 44-369) was 51 days, the “median time to transfusion independence for platelets” value ([10]; range 48-679) was 160 days and the “median time to transfusion independence for erythrocytes” value ([10]; range 57-679) was 109 days. For the same compound, the “death from treatment failure” value ([10]; series of 5 patients) was “one death”, the “median time to a neutrophil count of 500 μL” value ([11]; 19 patients) was 49 days and the “probability of achieving treatment-free remission” value ([11]; 19 patients, 95% CI 51-91%) was 73%. The probability of survival ([11]; at 24 months, 19 patients, 95% CI 59-95%) was 84%, the “relapse or secondary clonal disorders” value ([11]; responding patients) was “No responding patients” and the “marked reduction in anti-HLA antibody titer” value ([12]; after treatment) was “All four responders”. The “complete remission of the SAA” value ([12]; five patients with HLA-specific antibodies) was “four of these five” and the “anti-HLA antibody completely eradicated” value ([12]; of four responders) was “three”.
